One data set has as its system GABAA. Also on record: method as in Jastrzębska-Więsek et al. [2013]. The settings on record: ref Jastrzębska-Więsek et al. [2013]; cited from earlier work.
The nature of data set [1]: Distribution of EMD386088 in rats' brain (LC/MS/MS, non-compartmental). The class given is in vivo, rat. How it is done: Blood samples were collected at 0 min (predose), 5 min, 15 min, 30 min, 60 min, 120 min, and 240 min after injections. The blood was collected from right ventricle under anesthesia using a mixture of ketamine (50 mg/kg)/xylasine (8 mg/kg) in the ratio of 3:1, and 0.025 mL of a mixture for 10 g body weight was injected i.p. 10 min before planned blood collection. Blood and brain samples were collected under general anesthesia induced by i.p. injections of ketamine (50 mg/kg)/xylasine (8 mg/kg). The blood samples were taken into heparinized tubes, immediately centrifuged at 3500 rpm for 10 min, and plasma was collected. After the blood was drawn, the rat’s spinal cord was cut and the cerebral tissue was removed, and after dissection washed in PBS saline. The brain and plasma samples were immediately frozen at − 80 °C for LC/MS/MS analysis.
Pharmacokinetic parameters were calculated by a non-compartmental approach from the average concentration values, using Phoenix WinNonlin software (Certara, Princeton, NJ 08540 USA). First order elimination rate constant (λz) was calculated by linear regression of time versus log concentration.
The quantification of studied compounds in plasma and brain samples was done using HPLC Agilent 1100 system (Agilent Technologies, Waldbronn, Germany) coupled to the triple quadrupole mass spectrometer API 2000 (ABSciex, Framingham, Massachusetts, USA) equipped with an electrospray ion source. After preparation, the samples were injected (20 μL) onto XBridge C18 (2.1 mm × 30 mm, 3.5 μm, Waters, Milford, Massachusetts, USA) analytical column. The mobile phase consisted of ACN with 0.1% formic acid (A) and water with 0.1% formic acid (B) were delivered in gradient elution started with 90% of eluent B, increasing during 2 min to 90% of eluent A, maintained to 3 min, and then returned during 5 min to 90% of eluent B, and maintained 90% of eluent B during 5 min at a flow rate of 300 μL/min. The total time of analysis was 15 min. Electrospray ionization process was performed in positive ionization and the data acquisition was carried out in multiple reaction monitoring mode (MRM) for EMD386088 and its internal standard (nebivolol). The ion spray source settings were as follows: spray voltage: 5 kV, heater temperature: 350 °C, curtain gas: 15 psi, source gas 1: 35 psi, source gas 2: 10 psi. The ions measured were m/z 247.3 (Q1) and m/z 168.2 (Q3) for EMD386088, and m/z 406.2 (Q1) and m/z 151.1 (Q3) for IS.
A sample volume of 50 μL of plasma or brain homogenate was transferred into the clean Eppendorf tube and spiked with 5 μL of IS solution (1 μg/mL) obtaining the final concentration of 100 ng/mL. After 5 min of mixing (1500 rpm), proteins were precipitated using 150 μL ACN. After 10 min of samples shaking (1500 rpm), the incubation step was performed (10 min, 4 °C). Next, samples were centrifuged (10,000 rpm, 10 min, 4 °C) and the supernatant was transferred into chromatographic vial for LC/MS/MS analysis. The brain homogenate was prepared maintaining the tissue: phosphate-buffered saline (PBS) at a ratio of 1:5. The homogenization was carried out employing IKA® T10 Basic ULTRA-TURRAX disperser (IKA Werke GmbH & Co. KG, Staufen, Germany). After homogenization, 50 μL of sample was collected for further preparation. All samples were stored on ice during the preparation process.

For another data set, the target named is T1, recombinant human CYP2D6 (Homo sapiens, UniProt P10635).
T1 construct: purchased Promega (Madison, WI, USA)
T1 sequence (P10635 whole entry): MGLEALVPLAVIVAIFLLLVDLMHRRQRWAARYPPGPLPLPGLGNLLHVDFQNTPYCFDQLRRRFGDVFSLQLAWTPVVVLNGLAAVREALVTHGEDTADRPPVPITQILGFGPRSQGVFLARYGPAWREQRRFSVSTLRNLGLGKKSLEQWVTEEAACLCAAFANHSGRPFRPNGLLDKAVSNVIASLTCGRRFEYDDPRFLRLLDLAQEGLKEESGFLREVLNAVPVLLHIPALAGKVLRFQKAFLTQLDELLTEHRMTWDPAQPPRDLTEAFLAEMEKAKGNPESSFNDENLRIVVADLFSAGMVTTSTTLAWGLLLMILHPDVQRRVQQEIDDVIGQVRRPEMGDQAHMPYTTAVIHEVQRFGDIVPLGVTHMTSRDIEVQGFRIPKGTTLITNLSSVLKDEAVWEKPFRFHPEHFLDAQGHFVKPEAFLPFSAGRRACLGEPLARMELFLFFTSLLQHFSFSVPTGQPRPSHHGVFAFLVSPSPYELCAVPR
Briefly: Luminescent CYP2D6 P450-Glo assay. It counts as in vitro ADME. The settings on record: read-out: IC 50 CYP2D6.

In a further data set the test system is α2-adrenoceptors. Also on record: method as in Jastrzębska-Więsek et al. [2013]. Conditions: ref Jastrzębska-Więsek et al. [2013]; cited from earlier work.
[2] abbreviates: rat brain, EMD386088 2.5 mg/kg i.p. jointly with imipramine (IMI) 15 mg/kg i.p.
[3] abbreviates: rat, brain, ip, 2.5 mg/kg, rat brain, EMD386088 2.5 mg/kg i.p. alone.
Setting [4] is: rat, brain, ip, 2.5 mg/kg, rat brain, EMD386088 2.5 mg/kg i.p. jointly with imipramine (IMI) 15 mg/kg i.p.
Setting [5] is: rat, brain, ip, 5 mg/kg, rat brain, EMD386088 5 mg/kg i.p. alone.

These results are taken from PMC5748433, “Study on the effect of EMD386088, a 5-HT6 receptor partial agonist, in enhancing the anti-immobility action of some antidepressants in rats” (Naunyn-Schmiedeberg's Archives of Pharmacology, 2017).

The structures appear in SMILES notation. Read-outs that look alike come from different tables or passages of the source.

Procedure for recombinant human CYP2D6: The enzymatic reactions were performed in white polystyrene, flat-bottom Nunc™ MicroWell™ 96-Well Microplates (Thermo Scientific, Waltham, MA USA). The luminescence signal was measured with a microplate reader in luminescence mode (EnSpire, PerkinElmer, Waltham, MA USA).

One may read the Cmax as the maximum level reached in the sampled fluid or tissue. In general, MRT refers to a mean duration of stay, worked out from the concentration-time curve. As to `Cc1[nH]c2ccc(Cl)cc2c1C1=CCNCC1.Cl` [EMD386088, 5-chloro-2-methyl-3-(1,2,3,6-tetrahydro-4-pyridinyl)-1H-indole hydrochloride], the “affinity for GABAA” value in the data set on GABAA is listed as “no affinity”. Further, the Tmax was 2 h in data set [1] (ip, rat brain, EMD386088 2.5 mg/kg i.p. alone, read-out: t max (converted)); 2 h in data set [1] (ip, rat brain, EMD386088 5 mg/kg i.p. alone, read-out: t max (converted)); 2 h in data set [1] (setting [2]); 2 h in data set [1] (rat, brain, ip, rats, after i.p. administration, read-out: t max in the brain (converted)). Moreover, the AUC0 → t in data set [1] (rat brain, EMD386088 2.5 mg/kg i.p. alone) is on record as 41,936.2 ng ⋅ min/g; in data set [1] (setting [2]) it was 56,428.6 ng ⋅ min/g; in data set [1] (rat brain, EMD386088 5 mg/kg i.p. alone) it was 84,462.8 ng ⋅ min/g. The Cmax in data set [1] (setting [3]) was 321 ng/g; in data set [1] (setting [4]), 277 ng/g; in data set [1] (setting [5]), 640 ng/g. The mean residence time MRT in data set [1] (setting [3]) was 1.9 h; in data set [1] (setting [4]), 2.12 h; in data set [1] (setting [5]), 1.91 h. Besides, the Kp in data set [1] (rat, brain, ip, rats, EMD386088 2.5 mg/kg i.p. alone, calculated on the basis of AUC0 → t values, read-out: brain/plasma ratio) was approximately 19. Further, the “decrease in penetration on coadministration with imipramine” value in data set [1] (rats, EMD386088 with imipramine vs alone) is 2.5 fold. Further, the IC50 on recombinant human CYP2D6 is 2.25 µM. Moreover, the “affinity for α2-adrenoceptors” value in the data set with α2-adrenoceptors is on record as “no affinity”.
